Source: US7678781B2, “11-phosphorous steroid derivatives useful as progesterone receptor modulators” (Janssen Pharmaceutica N.V., priority 2006, dated 2010)

How the values were obtained:
[1] = tested on: T47D human breast cancer cells; assay: Alkaline phosphatase assay in human breast cancer cell line T47D; type: cell-based; details: 24 h, read-out: T47D IC50 (nM)
Description: Alkaline Phosphatase Assay in Human Breast Cancer Cell Line T47D
T47D human breast cancer cells were grown in RPMI medium without phenol red (Invitrogen) containing 10% (v/v) heat-inactivated fetal bovine serum (FBS; Hyclone), 1% (v/v) penicillin-streptomycin (Invitrogen), 1% (w/v) glutamine (Invitrogen), and […] insulin (Sigma). Incubation conditions were 37° C. in a humidified 5% (v/v) carbon dioxide environment.
The cells were plated in 96-well tissue culture plates at 10,000 cells per well in assay medium [RPMI medium without phenol red (Invitrogen) containing 5% (v/v) charcoal-treated FBS (Hyclone) and 1% (v/v) penicillin-streptomycin (Invitrogen)]. Two days later, the medium was decanted and test compound or control were added at a final concentration of 0.1% (v/v) dimethyl sulfoxide in fresh assay medium. Twenty-four hours later, an alkaline phosphatase assay was performed using a SEAP kit (BD Biosciences Clontech, Palo Alto, Calif.). Briefly, the medium was decanted and the cells were fixed for 30 minutes at room temperature with 5% (v/v) formalin (Sigma). The cells were washed once with room temperature Hank's buffered saline solution (Invitrogen). Equal volumes (0.05 mL) of 1× Dilution Buffer, Assay Buffer and 1:20 substrate/enhancer mixture were then added. After 1 hour incubation at room temperature in the dark, the lysate was transferred to a white 96-well plate (Dynex) and luminescence was read using a LuminoSkan Ascent (Thermo Electron, Woburn, Mass.).

[2] = tested on: A549 Human lung carcinoma cells; assay: Transient transfection and Steady Glo luciferase assay in A549 cells with dexamethasone challenge; type: cell-based; details: transfected A549 cells, challenged with dexamethasone (glucocorticoid agonist), 24 h
Description: Transient Transfection and Steady Glo Luciferase Assay
A549 Human lung carcinoma cells were grown in F-12K Nutrient Mixture containing 10% (v/v) fetal bovine serum (FBS; Invitrogen), 2 mM glutamine and 0.15% sodium dicarbonate(Invitrogen).
A549 cells were split 1 to 3 in 175 cm tissue culture flask. The cells were incubated at 37° C. in CO2 incubator until the cells were 95% confluent (typically 24-30 hours).
The following solutions were prepared in sterile tubes: (a) Solution A: 1.5 μg/ml of DNA in 8.5 ml OPTI-MEM I Reduced Serum Medium. (GIBCO cat# 31985) and (b) Solution B: 6 μl/ml of DMRIE-C Reagent into […] OPTI-MEM I. The two solutions were combined and mixed gently, then incubated at room temperature for 40 minutes.
The A549 cells prepared above were washed with […] of OPTI-MEM I. The medium was removed and 17 ml of the lipid-DNA complex solution was overlayed onto cells. The cells ere then incubated for 16 h at 37° C. in CO2 incubator. The DNA-containing medium was removed and 30 ml of growth medium was added. (5% Charcoal treated FBS) After 5-6 h, the cells were seeded in a 96 well plate and the cells incubated overnight at 37° C. in CO2 incubator.
To each well was then added 5 μl of test compounds and the cells incubated at 37° C. for 10 min. […] A 150 μL sample from each well was then transferred into a DYNEX Microlitel plate and read on Top-counter.

Structure (SMILES) | IC50 [1] | IC50 [2]
C=C1CCO[C@]12CC[C@H]1[C@@H]3CCC4=CC(=O)CCC4=C3[C@@H](c3ccc(P(C)(C)=O)cc3)C[C@@]12C [Compound 4] | 3 nM | 
C=C1CCO[C@]12CC[C@H]1[C@@H]3CCC4=CC(=O)CCC4=C3[C@@H](c3ccc(P(=O)(Oc4ccccc4)Oc4ccccc4)cc3)C[C@@]12C [Compound 37] | 3.3 nM | 34.3 nM
C[C@]12C[C@H](c3ccc(P(=O)(Oc4ccccc4)Oc4ccccc4)cc3)C3=C4CCC(=O)C=C4CC[C@H]3[C@@H]1CCC2=O [Compound 33] | > 1000 nM | 217 nM
